The results in this text go back to patent US20130005810A1, “ORGANIC UNCOUPLING AGENTS” (RHODIA OPERATIONS, priority 2009, published 2013).

The test system of the assay is bacterial strain Shinella granuli. In words: Oxitop respirometric screening test (oxygen overconsumption as signature of uncoupling, 7 days). It counts as cell-based. To be noted: for uncoupling percentage relative to the control: Shinella granuli, 7 days. From the text: In order to evaluate the reduction in sludge production by a chemical uncoupling agent in screening, the respirometric technique of Oxitop® cylinders is used. Bacterial strains known and representative of activated sludge (since they are isolated in aeration tanks) are inoculated into a culture medium in the presence of a certain concentration of the uncoupling agent over a period of 7 days. By comparing the respiration of treated inocula comparatively with controls (untreated inocula), it is possible to measure oxygen overconsumption, a physiological signature of the uncoupling effect on bacteria.
The method and the apparatus used are those described in Example 3 of WO 2004/113236 cited as a reference.
The results obtained in a screening test on the bacterial strain Shinella granuli, are gathered in Table 1 below. They are expressed as an uncoupling percentage relative to the control (not comprising any uncoupling agent). THPS (tetrakis(hydromethyl)phosphonium sulfate) produces uncoupling effects in oxitop® respirometry tests of 16±8% for a rated concentration of 3 ppm, the 95% confidence interval of THPS in terms of uncoupling factor being, […] from results obtained in 26 Oxitop® tests.

As for `C[N+](C)(C)CC(=O)[O-]` [Glycine betaine, glycine betaine], the “uncoupling percentage relative to the control” value is 5% (0.1 ppm uncoupling agent); 18% (0.5 ppm uncoupling agent); 0% (1 ppm uncoupling agent); 20%-26% (2 ppm uncoupling agent); 24%-25% (3 ppm uncoupling agent); 20%-26% (8 ppm uncoupling agent). In addition, under “10 ppm uncoupling agent”, the “uncoupling percentage relative to the control” value is on record as 12-20%.
Consider `OCC(CO)(CO)CO` [Pentaerythritol, pentaerythritol], for which the “uncoupling percentage relative to the control” value is, setting by setting: (0.5 ppm uncoupling agent) 2%; (1 ppm uncoupling agent) 8%; (3 ppm uncoupling agent) 19%; (20 ppm uncoupling agent) 22%. Further, the uncoupling factor (concentration range between 2 and 20 ppm, summary drawn from Table 1) is listed as roughly 20%.
Take `COc1cc(C=O)ccc1O` [Vanillin, vanillin]: the “uncoupling percentage relative to the control” value (0.1 ppm uncoupling agent) is 5%; the “uncoupling percentage relative to the control” value (0.5 ppm uncoupling agent) came to 18%; the “uncoupling percentage relative to the control” value (1 ppm uncoupling agent) is given as 14%; the “uncoupling percentage relative to the control” value (2 ppm uncoupling agent) was 18%-25%; the “uncoupling percentage relative to the control” value (3 ppm uncoupling agent) is on record as 15%-22%; the “uncoupling percentage relative to the control” value (8 ppm uncoupling agent) is 21%-21%. The “uncoupling percentage relative to the control” value (10 ppm uncoupling agent) is listed as 18%-23% and the “uncoupling percentage relative to the control” value (20 ppm uncoupling agent) turned out to be 18%.
